Test results reported in patent publication US20230128815A1, “ADJUVANT COMPOUNDS, SALT FORMS, AND FORMULATIONS” (ADJUVANCE TECHNOLOGIES, INC., priority 2020, published 2023).
Where a name gives a salt, the structure may show the parent alone.

Tests used:
Solubility in water = format: physicochemical
[1] = TQL-1055 choline salt and free acid ethanol solubility; format: physicochemical; settings: 100% ethanol, 37 °C, organic solvent or mixture, thermodynamic from solid, solubility in 100% ethanol, vortex mixed, sonicated at 37° C. for five minutes
Description: An experiment was conducted to determine the solubility of TQL-1055 choline salt and TQL-1055 free acid in ethanol. Several samples were prepared, each containing either TQL-1055 choline salt or TQL-1055 free acid dissolved in a 100% ethanol solution at a concentration of 4 mg/ml. All samples were mixed using a vortex mixer and subsequently sonicated at 37° C. for five minutes. Neither the TQL-1055 choline salt nor the TQL-1055 free acid were fully dissolved at 4 mg/ml. Samples were then diluted to 3.5 mg/ml, 3 mg/ml, 2.5 mg/ml, or 2 mg/ml and re-sonicated. As depicted in FIGS. 16-18, TQL-1055 choline salt was completely dissolved at a concentration of 3 mg/ml, whereas TQL-1055 free acid was completely dissolved at a concentration of 2 mg/ml. Accordingly, TQL-1055 choline salt is soluble in 100% ethanol up to concentrations of approximately 3 mg/ml, whereas TQL-1055 free acid is soluble in 100% ethanol up to concentrations of approximately 2 mg/ml.

[2] = compared to QS-21; cited from earlier work
[3] = Dynamic vapor sorption (DVS) / humidity-dependent form stability; format: physicochemical
Description: Automated vapor sorption (VS) data were collected on a Surface Measurement System DVS Intrinsic instrument. Samples were not dried prior to analysis. Sorption and desorption data were collected over a range from 5% to 95% RH at 10% RH increments under a nitrogen purge. The equilibrium criterion used for analysis was less than 0.0100% weight change in 5 minutes with a maximum equilibration time of 3 hours. Data were not corrected for the initial moisture content of the samples.

[4] = from 5 to 65% relative humidity

| Compound | solubility in water at physiological pH (Solubility in water; physiological pH) | solubility at 5 min [1] [µg/mL] | efficacy as compared to the natural product [2] | toxicity as compared to the natural product [2] | solubility (Solubility in water) [µg/mL] | DVS additional weight gain ([3]; above 65% up to 95% relative humidity) [%] | DVS weight gain [3, 4] [%] | water gain equivalent to DVS weight gain [3, 4] [mol/mol] | DVS weight loss on desorption ([3]; from 95 to 5% relative humidity) [%] | relative humidity above which the form converts to higher hydrate Choline Material B ([3]; relative humidity) |
| --- | --- | --- | --- | --- | --- | --- | --- | --- | --- | --- |
| CC1O[C@@H](OC2C(O)[C@@H](NC(=O)CCCCCCCCCCC(=O)O)C(CO)O[C@H]2OC(=O)[C@]23CCC(C)(C)CC2C2=CCC4C5(C)CC[C@H](O)[C@](C)(C=O)[C@@H]5CC[C@]4(C)[C@]2(C)CC3O)C(O)C(O)[C@H]1O[C@@H]1OC[C@@H](O)C(O)C1O (some centres unmarked) [Compound I-4] | poor solubility | ~2000 | improved efficacy | reduced toxicity | – | – | – | – | – | – |
| CC1O[C@@H](OC2C(O)[C@@H](NC(=O)CCCCCCCCCCC(=O)O)C(CO)O[C@H]2OC(=O)[C@]23CCC(C)(C)CC2C2=CCC4C5(C)CC[C@H](O)C(C)(C=O)C5CCC4(C)C2(C)CC3O)C(O)C(O)[C@H]1O[C@@H]1OC[C@@H](O)C(O)C1O (some centres unmarked) [Form A] | – | – | – | – | > 6000 | 14 | 5 | ~3.5 | 19 | above 65% |
| CC1O[C@@H](OC2C(O)[C@@H](NC(=O)CCCCCCCCCCC(=O)O)C(CO)O[C@H]2OC(=O)[C@]23CCC(C)(C)CC2C2=CCC4C5(C)CC[C@H](O)C(C)(C=O)C5CCC4(C)C2(C)CC3O)C(O)C(O)[C@H]1O[C@@H]1OC[C@@H](O)C(O)C1O (some centres unmarked) [TQL-1055 choline salt] | – | ~3000 | – | – | – | – | – | – | – | – |
